These results are taken from BindingDB's records for patent US20250270212 (Padarn Therapeutics, 2025).

The term pEC50 denotes −log10 of the EC50, conventionally taken in molar units. High values mean a low EC50, low ones a high EC50.

Structures are written as SMILES. pEC50: −log10 of the molar value.

Chain of Wee1-like protein kinase (P30291 whole entry): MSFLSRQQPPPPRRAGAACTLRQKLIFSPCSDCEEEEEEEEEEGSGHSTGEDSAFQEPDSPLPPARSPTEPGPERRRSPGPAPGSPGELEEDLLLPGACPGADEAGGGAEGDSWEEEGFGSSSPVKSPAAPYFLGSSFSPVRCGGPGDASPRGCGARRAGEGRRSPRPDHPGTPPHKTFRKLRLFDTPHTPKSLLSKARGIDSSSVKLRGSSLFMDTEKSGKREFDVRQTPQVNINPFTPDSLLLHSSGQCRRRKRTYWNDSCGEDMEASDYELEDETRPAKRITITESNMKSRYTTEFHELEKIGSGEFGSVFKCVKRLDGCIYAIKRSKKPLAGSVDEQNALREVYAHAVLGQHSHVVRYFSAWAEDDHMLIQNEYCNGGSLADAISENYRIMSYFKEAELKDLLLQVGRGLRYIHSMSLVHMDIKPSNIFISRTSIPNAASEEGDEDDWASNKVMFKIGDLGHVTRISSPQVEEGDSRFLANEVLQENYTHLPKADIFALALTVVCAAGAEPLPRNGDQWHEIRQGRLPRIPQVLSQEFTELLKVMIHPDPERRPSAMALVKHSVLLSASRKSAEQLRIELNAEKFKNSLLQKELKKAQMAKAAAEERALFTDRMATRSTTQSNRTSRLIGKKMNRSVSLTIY

In this assay the target is Wee1-like protein kinase (Homo sapiens, UniProt P30291). The assay is described as follows: Wee1 Enzymatic Activity Inhibition Assay. Here is the method:
The enzymatic assay used to determine activity was a Luminescence assay using a Microplate Reader (BMG, ClarioStar Plus). The enzymatic reaction was carried out in assay buffer (40 mM TRIS-HCl pH 7.4-7.6, 20 mM MgCl2, 0.05 mM DTT, 0.1 mg/ml BSA, 5 mM MnCl2). The compounds were dispensed on a 384 well Diamond Well Plate (Axigen, Cat #P-384-120SQ-C-S) using the Biomek FX liquid handling system at 100× solutions of compounds in DMSO. 2×Wee1-PolyE4Y1 mix (final concentration 0.85 ng/μl of Wee1 and 0.2 μg/μl of PolyE4Y1) was prepared in 1× Assay buffer and 5.5 μl of mixture per well was added into 384w white Reaction plate with NBS (Corning, Cat #4513). 5.5 μl of PolyE4Y1 substrate w/o Wee1 in 1× buffer was used for negative control. Plates were centrifuged for 1 min at 100 g. Next step the Compounds were added to Reaction plate using Biomek station via following steps: 1 μl of 100× compounds (in DMSO) were mixed thoroughly with 49 μl of 2×10 μM ATP in Assay Buffer, then 5.5 μl of this mixture was added to Reaction plate with 5.5 μl of Wee1-PolyE4Y1 mix. Plates were centrifuged for 1 min at 100 g and incubated for 1 h at room temperature. Next 3 μL of ADP-Glo reagent (Promega, ADP-Glo™ Kinase Assay, Cat #V9102) per well was added. Plates were incubated for 30 minutes at room temperature. Then 6 μL of Kinase detection reagent (Promega, ADP-Glo™ Kinase Assay, Cat #V9102) per well was added and the Luminescence was measured using Microplate Reader.
`C=CCn1c(=O)c2cnc(Nc3ccc(N4CCN(C(=O)c5cc(Cc6n[nH]c(=O)c7ccccc67)ccc5F)CC4)cc3)nc2n1-c1cccc(C(C)(C)O)c1` [US20250270212, Compound 1] had a pEC50 of more than 8.00.
The result for `C=CCn1c(=O)c2cnc(N3CCN(C(=O)c4cc(Cc5n[nH]c(=O)c6ccccc56)ccc4F)CC3)nc2n1-c1cccc(C(C)(C)O)n1` [US20250270212, Compound 2] reads less than 6.00.
The result for `C=CCn1c(=O)c2cnc(NC3CCN(C(=O)c4cc(Cc5n[nH]c(=O)c6ccccc56)ccc4F)CC3)nc2n1-c1cccc(C(C)(C)O)n1` [US20250270212, Compound 4] reads less than 6.00; that for `Cn1c(=O)c2cnc(N3CCN(C(=O)c4cc(Cc5n[nH]c(=O)c6ccccc56)ccc4F)CC3)nc2n1-c1ccccn1` [US20250270212, Compound 5], less than 6.00.
With `C=CCn1c(=O)c2cnc(NCCNC(=O)c3cc(Cc4n[nH]c(=O)c5ccccc45)ccc3F)nc2n1-c1cccc(C(C)(C)O)n1` [US20250270212, Compound 6] the figure was less than 6.00.
As to `Cn1c(=O)c2cnc(Nc3ccc(N4CCN(C(=O)c5cc(Cc6n[nH]c(=O)c7ccccc67)ccc5F)CC4)cc3)nc2n1-c1cccc(C(C)(C)O)n1` [US20250270212, Compound 7], the pEC50 was more than 8.00.
With `Cn1c(=O)c2cnc(Nc3ccc(N4CCN(Cc5cc(Cc6n[nH]c(=O)c7ccccc67)ccc5F)CC4)cc3)nc2n1-c1cccc(C(C)(C)O)n1` [US20250270212, Compound 8] the figure was more than 8.00.
With `Cn1c2nc(Nc3ccc(N4CCN(C(=O)c5cc(Cc6n[nH]c(=O)c7ccccc67)ccc5F)CC4)cc3)ncc2c(=O)n1-c1ccccn1` [US20250270212, Compound 12] the figure was less than 6.00; with `C=CCn1c(=O)c2cnc(Nc3ccc(N4CCN(C(=O)c5cc(Cn6c(=O)[nH]c(=O)c7c(F)cccc76)ccc5F)CC4)cc3)nc2n1-c1cccc(C(C)(C)O)n1` [US20250270212, Compound 16], more than 8.00.
`Cn1c2nc(Nc3ccc(N4CCN(C(=O)c5cc(Cn6c(=O)[nH]c(=O)c7c(F)cccc76)ccc5F)CC4)cc3)ncc2c(=O)n1-c1ccccn1` [US20250270212, Compound 17] had a pEC50 of less than 6.00.
With `C=CCn1c(=O)c2cnc(Nc3ccc(N4CCN(C(=O)c5cc(Cn6c(=O)[nH]c(=O)c7c(F)cccc76)ccc5F)CC4)cc3)nc2n1-c1ccccn1` [US20250270212, Compound 28] the figure was more than 8.00; with `C=CCn1c(=O)c2cnc(Nc3ccc(N4CCN(Cc5cc(Cn6c(=O)[nH]c(=O)c7c(F)cccc76)ccc5F)CC4)cc3)nc2n1-c1cccc(C(C)(C)O)n1` [US20250270212, Compound 34], more than 8.00; with `C=CCn1c(=O)c2cnc(Nc3ccc(N4CCN(Cc5ccc(-c6[nH]c7cc(F)cc8c7c6CCNC8=O)cc5)CC4)cc3)nc2n1-c1ccccn1` [US20250270212, Compound 39], more than 8.00.
With `C=CCn1c(=O)c2cnc(NC3CCN(Cc4ccc(-c5[nH]c6cc(F)cc7c6c5CCNC7=O)cc4)CC3)nc2n1-c1cccc(C(C)(C)O)n1` [US20250270212, Compound 47] the figure was less than 6.00; with `Cn1c2nc(Nc3ccc(N4CCC(c5nc6cccc(C(N)=O)c6[nH]5)CC4)cc3)ncc2c(=O)n1-c1ccccn1` [US20250270212, Compound 91], less than 6.00; with `Cn1c(=O)c2cnc(Nc3ccc(N4CCCC(c5nc6cccc(C(N)=O)c6[nH]5)C4)cc3)nc2n1-c1ccccn1` (stereo unspecified) [US20250270212, Compound 96], more than 8.00.
